The nature of data set [1]: Aqueous solubility by equilibration, HPLC analysis. Format: physicochemical. Conditions: for Aq solub: water, ambient temperature, slurried 4-5 days, corrected for weight of counter-ion. On the procedure: An aliquot of the UHQ water test solvent (1 mL) was added to an accurately weighed sample of the LA1 salts and agitated at ambient temperature for a period of 4 days. A sample was withdrawn, filtered through a […], and analyzed by HPLC. HPLC was used to determine aqueous equilibrium solubility at ambient temperature. […] Samples were slurried in water for 4-5 days before analysis.

A short description of data set [2]: physchem. From the text: A limited salt screen was previously conducted using five inorganic counter-ions (Na, K, NH4, Ca and Mg).
Data set [3] can be described thus: Solubility estimation by aliquot addition and temperature cycling. In kind it is physicochemical. The conditions noted are these: for solubility: thermodynamic from solid, 20° C., read-out: Approx. solubility. How it is done:
Aliquots of the test solvent were added to an accurately weighed sample (−10 mg) of LA1 at ambient temperature. The aliquot volumes were typically 200-1000 μL. Complete dissolution of the test material was determined by visual inspection. The solubility was estimated from these experiments based on the total solvent used to provide complete dissolution.
First, the samples were heated from 20° C. to within 3° C. of solvent boiling point (or 100° C., whichever was lower) at 0.5° C./minute; then cooled to 20° C. at 0.2° C./minute while stirring at 800 rpm.
From the infrared (IR) transmission data of the sample vials, dissolution and precipitation events were recorded as the point of complete transmission of IR and the onset of turbidity by IR respectively. Selected samples were also agitated on an orbital shaker at 50° C. and visually observed for dissolution.

The nature of data set [4]: in vivo. Conditions: male, beagle. How it is done: The PO (2 mg/kg) dose solution of micronized LA1 was prepared in 0.1% Tween-80 0.5% (w/v) and methyl cellulose in water.
The objective of the study was to investigate the preclinical pharmacokinetic profile of LA1 (micronized powder) in Beagle dog. To delineate the plasma concentration vs. time curve and characterize the relevant pharmacokinetic parameters to generate data on the PK properties viz., bioavailability, half-life (b1/2), volume of distribution, Cmax, Tmax, AUC and elimination rate constant of LA1 in Beagle dog.
LA1 was a coarse material which was micronized using laboratory scale ball mill. […] The micronized LA1 was recovered, weighed and stored in glass container at room temperature. For intravenous drug administration, LA1 excipient compatibility assay for dosing in dogs were carried out.
In brief, a known amount of LA1 was loaded to a cylindrical capped container made of stainless steel followed by addition of stainless steel balls. The ball mills were rotated on their axis for total of 60 minutes (6 cycles X 10 minutes). The micronized LA1 was recovered, weighed and stored in glass bottle at room temperature.
Test system: Healthy Beagle dog weighing 10-12 kg (age 10 months), males were used for the study. Crossover design was adopted for the experiments wherein 02 dogs were used in the study for oral and intravenous administration. Both the animals were housed stainless steel cage provided with a hopper to hold pellet feed and a separate water hopper. Temperature and humidity was maintained at 22±3° C. and 40-70%, respectively. The illumination was controlled to give a sequence of 12 h light and 12 h dark cycle. All the animals were adapted to the experimental conditions for at least 5 days prior to dosing. All animals were provided with Pedigree™ standard pellet feed, except for 10 to 12 h before treatment and 4 h after the drug administration. Water was provided ad libidum.
Formulation and drug administration: Exactly 90 mg of the test item LA1 (micronized powder) was weighed and transferred to a mortar and briefly triturated with pestle. Small volume of vehicle [0.5% (w/v) Carboxy methyl cellulose with 0.1% Tween-80] in water was then added slowly with continuous trituration until a uniform suspension was obtained. The content was then transferred into the measuring cylinder. The mortar was rinsed till the complete transfer of test item into the measuring cylinder was ensured. The final volume was then made up to 225 mL with vehicle to get a uniform suspension with desired concentration of 0.4 mg/mL. Dosing formulations were given by oral gavage at a dose volume not exceeding 5 mL/kg.
Intravenous drug formulation: Hemolysis assay using dog whole blood was employed to assess the damage of red blood cells for selection of excipient for intravenous dosing. […] Exactly 22.5 mg of the test item (micronized powder) was weighed into a graduated tube. 2.25 mL of DMSO was added drop wise and mixed by vortex. Then, 40.50 mL of Polyethylene glycol 400 (PEG-400) was added in two to three fragments and vortex intermittently. Then 2.25 mL Ethanol was added drop wise and vortex to get clear solution. The formulation was subjected to ultra-sonication for 5 minutes.
Sample collection: Serial method was used for blood sampling. Blood samples were collected as mentioned in the study design section (7). The blood sample (−1.5 mL) was collected from saphenous vein into labeled tubes, containing 2% w/v K2EDTA solution, as an anticoagulant.

Data set [5] has as its system leukocytes. The conditions noted are these: mice; cited from earlier work.
The conditions of data set [6]: rats; cited from earlier work.
Setting [7] is: after slurrying in water 4-5 days.

The structures appear in SMILES notation. Values after ≈ are worked out from the molar mass of the structure shown. “Also recorded” adds a separate entry of the source. Counter-ions that a name gives are not always drawn.

Take `O=C(O)c1ccc(-c2ccc(/C=C3\SC(=S)N(Cc4ccccc4)C3=O)o2)cc1` [LA1 choline salt]: in data set [1] (setting [7]), the Appearance entry is on record as “Darker red color” and the “Soln pH” value stood at 8. The “HPLC purity (%)” value in data set [1] (after slurrying in water 4-5 days (chemical stability)) came to 75.51%. Besides, in data set [1] (listed as choline), the “Aq solub” value is 7.052 mg/mL. Also, the “Aq solub” value in data set [1] (listed as choline salt) is given as 7.1 mg/mL.

Turning to `O=C(O)c1ccc(-c2ccc(/C=C3\SC(=S)N(Cc4ccccc4)C3=O)o2)cc1` [LA1, (Z)-4-(5-((3-benzyl-4-oxo-2-thioxothiazolidin-5-ylidene)methyl)furan-2-yl)benzoic acid], the solubility in data set [2] was 0.78 µg/mL (≈ 0.00185 mM); in data set [3] (aqueous with cosolvent or surfactant or cyclodextrin, DMF:water (1:1)), less than 10000 µg/mL; in data set [3] (organic solvent or mixture, DMF:MeOH (1:1)), less than 10000 µg/mL; in data set [3] (organic solvent or mixture, DMF:THF (1:1)), less than 7000 µg/mL; in data set [3] (organic solvent or mixture, MeOH:ACN:dioxane (1:1:1)), less than 10000 µg/mL; in data set [3] (organic solvent or mixture, MeOH:acetone (1:1)), less than 10000 µg/mL. In addition, the solubility is less than 10000 µg/mL in data set [3] (organic solvent or mixture, THF:Acetone (1:1)); less than 10000 µg/mL in data set [3] (organic solvent or mixture, THF:MeOH (1:1)); less than 10000 µg/mL in data set [3] (organic solvent or mixture, THF); less than 10000 µg/mL in data set [3] (organic solvent or mixture, acetone); less than 10000 µg/mL in data set [3] (organic solvent or mixture, acetonitrile); less than 10000 µg/mL in data set [3] (organic solvent or mixture, anisole). The solubility in data set [3] (organic solvent or mixture, dichloromethane) was less than 10000 µg/mL; in data set [3] (organic solvent or mixture, dimethylformamide), less than 10000 µg/mL; in data set [3] (organic solvent or mixture, hexafluoroisopropanol), less than 10000 µg/mL; in data set [3] (organic solvent or mixture, methanol) it was less than 10000 µg/mL. Also, the dissolution upon heating in data set [3] (DMF, 73° C.) is 10 mg/mL. In addition, the “solubility by aliquot addition, overall” value in data set [3] (all solvents and solvent mixtures tested) is “insoluble in all solvents tested; also recorded: poor solubility in all solvents tested”. Moreover, the “Dog Cl” value in data set [4] turned out to be 2.1 mL/min/kg. In addition, the “Dog F % (absolute oral bioavailability)” value in data set [4] is 50%. The same compound displayed an AUC in data set [4] (dog, po, 2 mg/kg) of 6.1 µM·h. Also, the Tmax in data set [4] (dog, po, 2 mg/kg) was determined as 4 h. In addition, in data set [4] (dog, po, 2 mg/kg, AUC0-12), the AUC0-t was 2570 ng·h/mL. In data set [4] (dog, po, 2 mg/kg, Cmax (peak concentration)), the peak concentration (Cmax) was found to be 685 ng/mL. In addition, the half-life in data set [4] (dog, po, 2 mg/kg, t1/2 (hr), oral half-life) is approximately 2 h. The “recruitment of leukocytes during acute peritonitis” value in data set [5] is on record as “reduce recruitment of leukocytes”. Further, in data set [6], the “neointimal thickening upon vascular injury” value is “reduce neointimal thickening”.

For orientation: solubility means the dissolved amount per volume that the medium holds. As a reminder, the AUC is concentration integrated over time. A lower AUC goes with less exposure. The term Tmax denotes the time at which the peak concentration occurs. The Cmax is the maximum level reached in the sampled fluid or tissue. A word on the half-life: it is how long it takes for the measured level to halve. The low end stands for rapid decline, the high end for slow decline.

(Values after patent US10723726B2, “Solid forms of (Z)-4-(5-((3-benzyl-4-oxo-2-thioxothiazolidin-5-ylidene)methyl)furan-2-yl)benzoic acid” (GB006, INC., priority 2015, dated 2020).)
